ChEMBL document CHEMBL1201862, “PubChem BioAssay data set” (2004)
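Protocol summary: plate cells (96-well), add compound at 5 concentrations, incubate 48 h, interpolate endpoints linearly. GI50: concentration for 50% inhibition of growth.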 The source made the active and inactive calls. Rule as the data show it: active = GI50 up to about 1.1 µM and inactive = higher.

Legend:
Test in all cases: NCI anticancer screen, dose series, 48 h
SN12C = test system: SN12C
Hs-578T = test system: Hs-578T
SK-OV-3 = test system: SK-OV-3
IGROV-1 = test system: IGROV-1
SF-539 = test system: SF-539
ACHN = test system: ACHN
HT-29 = test system: HT-29
HCT-15 = test system: HCT-15
OVCAR-8 = test system: OVCAR-8
EKVX = test system: EKVX
UACC-257 = test system: UACC-257
HCC 2998 = test system: HCC 2998
A498 = test system: A498
PC-3 = test system: PC-3
HOP-62 = test system: HOP-62
SK-MEL-2 = test system: SK-MEL-2
T47D = test system: T47D
CAKI-1 = test system: CAKI-1
MOLT-4 = test system: MOLT-4

| SMILES | GI50 (SN12C) | GI50 (Hs-578T) | GI50 (SK-OV-3) | GI50 (IGROV-1) | GI50 (SF-539) | GI50 (ACHN) | GI50 (HT-29) | GI50 (HCT-15) | GI50 (OVCAR-8) | GI50 (EKVX) | GI50 (UACC-257) | GI50 (HCC 2998) | GI50 (A498) | GI50 (PC-3) | GI50 (HOP-62) | GI50 (SK-MEL-2) | GI50 (T47D) | GI50 (CAKI-1) | GI50 (MOLT-4) |
| --- | --- | --- | --- | --- | --- | --- | --- | --- | --- | --- | --- | --- | --- | --- | --- | --- | --- | --- | --- |
| O=C(SCc1cccc2ccccc12)c1ccc(Cl)cc1 | > 100 µM (inactive) | 79.3 µM (inactive) | > 100 µM (inactive) | > 100 µM (inactive) | > 100 µM (inactive) | > 100 µM (inactive) | 54.2 µM (inactive) | 50.9 µM | > 100 µM (inactive) | 80 µM (inactive) | 76.7 µM (inactive) | > 100 µM (inactive) | > 100 µM (inactive) | > 100 µM (inactive) | > 100 µM (inactive) | > 100 µM (inactive) | 81.7 µM (inactive) | > 100 µM (inactive) |  |
| N/N=C(\C(=O)Nc1ccc([N+](=O)[O-])cc1)C(C1=Nc2cc([N+](=O)[O-])ccc2NC1)[N+](=O)[O-] (centres undefined) | > 100 µM (inactive) | > 100 µM (inactive) | > 100 µM (inactive) | > 100 µM (inactive) | > 100 µM (inactive) | 43.1 µM (inactive) | 72.4 µM (inactive) | > 100 µM | > 100 µM (inactive) | > 100 µM (inactive) | > 100 µM (inactive) | > 100 µM (inactive) | > 100 µM (inactive) | > 100 µM (inactive) | > 100 µM (inactive) | > 100 µM (inactive) | 75.7 µM (inactive) | 79.4 µM (inactive) | > 100 µM (inactive) |
| CN1CC2=C(N=C(S)NC2c2ccccc2Cl)/C(=C/c2ccccc2Cl)C1 (centres undefined) | 46.2 µM (inactive) | > 100 µM (inactive) | > 100 µM (inactive) | 53.7 µM (inactive) | 73.6 µM (inactive) | 25.1 µM (inactive) | 30.8 µM (inactive) | 64.1 µM | 33 µM (inactive) | 43.2 µM (inactive) | 55.8 µM (inactive) | > 100 µM (inactive) | 77.3 µM (inactive) | 26.5 µM (inactive) | > 100 µM (inactive) | 69 µM (inactive) | 58.3 µM (inactive) | > 100 µM (inactive) | 23 µM (inactive) |
| COc1cc([C@@H]2c3cc4c(cc3[C@@H](c3c(O)cc(O)c5c3O[C@H](c3ccc(O)c(O)c3)[C@@H](O)C5)[C@H]3COC(=O)[C@H]23)OCO4)cc(OC)c1OC | 32.2 µM (inactive) | 34 µM (inactive) | 1.83 µM (inactive) | 44.6 µM (inactive) | 17.6 µM (inactive) | 1.78 µM (inactive) | 25.5 µM (inactive) | 39.2 µM | 44.4 µM (inactive) | 50.1 µM (inactive) | 1.95 µM (inactive) | 1.8 µM (inactive) | 1.6 µM (inactive) | 1.75 µM (inactive) | 1.88 µM (inactive) | 1.88 µM (inactive) | 2.24 µM (inactive) | 1.97 µM (inactive) | 30.5 µM (inactive) |
| O=C(O)CN1CCN2CCOCCN(CC1)CCN(CC(=O)O)CC2 | > 100 µM (inactive) | > 100 µM (inactive) | > 100 µM (inactive) | > 100 µM (inactive) | > 100 µM (inactive) | > 100 µM (inactive) | > 100 µM (inactive) | > 100 µM | > 100 µM (inactive) | > 100 µM (inactive) | > 100 µM (inactive) | > 100 µM (inactive) | > 100 µM (inactive) | > 100 µM (inactive) | > 100 µM (inactive) | > 100 µM (inactive) | > 100 µM (inactive) | > 100 µM (inactive) | > 100 µM (inactive) |
| O=C(O)CCCc1ccc2c(c1)CC1(C2)Cc2ccc(CCCC(=O)O)cc2C1 | > 100 µM (inactive) | > 100 µM (inactive) | > 100 µM (inactive) | > 100 µM (inactive) | > 100 µM (inactive) | > 100 µM (inactive) | > 100 µM (inactive) | > 100 µM | > 100 µM (inactive) | > 100 µM (inactive) | > 100 µM (inactive) | > 100 µM (inactive) | > 100 µM (inactive) | > 100 µM (inactive) | > 100 µM (inactive) | > 100 µM (inactive) | > 100 µM (inactive) |  | > 100 µM (inactive) |
| CCC(C#N)NCc1ccc(CNC(C#N)CC)cc1 (centres undefined) | > 100 µM (inactive) | > 100 µM (inactive) | > 100 µM (inactive) | > 100 µM (inactive) | > 100 µM (inactive) | > 100 µM (inactive) | > 100 µM (inactive) | > 100 µM | > 100 µM (inactive) | > 100 µM (inactive) | > 100 µM (inactive) | > 100 µM (inactive) | > 100 µM (inactive) | > 100 µM (inactive) |  | > 100 µM (inactive) | > 100 µM (inactive) | > 100 µM (inactive) | > 100 µM (inactive) |
| COc1cc(Nc2nc3ccccc3nc2C(=O)O)cc(OC)c1OC | 74.1 µM (inactive) | 20.8 µM (inactive) | 59.2 µM (inactive) | 78.3 µM (inactive) | > 100 µM (inactive) | > 100 µM (inactive) |  | 32.4 µM | > 100 µM (inactive) | 30.1 µM (inactive) | 87.3 µM (inactive) | 69.3 µM (inactive) | 35 µM (inactive) | > 100 µM (inactive) | 22.8 µM (inactive) |  | 24.3 µM (inactive) | 16.4 µM (inactive) | > 100 µM (inactive) |
| CC[C@@]1(O)C(=O)OCc2c1cc1n(c2=O)Cc2c-1nc1ccccc1c2/C=N\NC(=O)C(C)N (some centres undefined) | < 0.01 µM (active) | 11.9 µM (inactive) |  | 1.13 µM (inactive) | < 0.0116 µM (active) | < 0.0216 µM (active) | 1.63 µM (inactive) | 4.29 µM | 0.0923 µM (active) | 11.9 µM (inactive) | 1.37 µM (inactive) | 0.332 µM (active) | 0.111 µM (active) | 1.91 µM (inactive) | < 0.0266 µM (active) | 13.1 µM (inactive) | < 0.0157 µM (active) | 0.071 µM (active) | < 0.0158 µM (active) |
| O=[N+]([O-])c1cc(Cl)cc2cc(Br)cnc12 | > 31.6 µM (inactive) | 17.6 µM (inactive) | > 10 µM (inactive) |  | > 31.6 µM (inactive) | > 31.6 µM (inactive) | > 31.6 µM (inactive) | > 31.6 µM | 24.1 µM (inactive) | > 31.6 µM (inactive) | 31.1 µM (inactive) | > 31.6 µM (inactive) | 23.6 µM (inactive) | > 31.6 µM (inactive) | > 31.6 µM (inactive) | 39.9 µM (inactive) | > 31.6 µM (inactive) | > 10 µM (inactive) | > 31.6 µM (inactive) |
| Cn1c(-c2ccccc2)cc(-c2ccc3c(c2)OCO3)c1-c1cccs1 | > 100 µM (inactive) | > 100 µM (inactive) | > 100 µM (inactive) | > 100 µM (inactive) | > 100 µM (inactive) | > 100 µM (inactive) | > 100 µM (inactive) | > 100 µM | > 100 µM (inactive) | > 100 µM (inactive) | > 100 µM (inactive) | > 100 µM (inactive) | > 100 µM (inactive) | > 100 µM (inactive) | > 100 µM (inactive) | > 100 µM (inactive) | > 100 µM (inactive) |  | > 100 µM (inactive) |
| CCOC(=O)C1=NOC2(C=C(Br)C(=O)C(Br)=C2)C1 | 2.36 µM (inactive) | 22.1 µM (inactive) | 8.39 µM (inactive) | 7.36 µM (inactive) | 4.43 µM (inactive) | 0.923 µM (active) | 1.97 µM (inactive) | 2.03 µM | 2.04 µM (inactive) | 2.22 µM (inactive) | 1.34 µM (inactive) | 1.79 µM (inactive) | 20.1 µM (inactive) | 2.29 µM (inactive) | 6.41 µM (inactive) | 6.84 µM (inactive) | 1.21 µM (inactive) | 1.3 µM (inactive) | < 0.0346 µM (active) |
| COc1cc2nc(Cl)nc(NS(=O)(=O)c3cc4ccccc4s3)c2cc1OC | 29.6 µM (inactive) | 40.6 µM (inactive) | 28.1 µM (inactive) | 27 µM (inactive) | 37.2 µM (inactive) | 30.8 µM (inactive) | 27.5 µM (inactive) | 36.3 µM | 33 µM (inactive) | 25 µM (inactive) | 32.4 µM (inactive) | 19 µM (inactive) | 16.4 µM (inactive) | 26.1 µM (inactive) | 31.5 µM (inactive) | 24.5 µM (inactive) | 19.7 µM (inactive) | 33.3 µM (inactive) |  |
| Oc1ccccc1C1=NOC(c2ccc(C(F)(F)F)cc2)C1 (centres undefined) | > 50 µM (inactive) | > 50 µM (inactive) | > 50 µM (inactive) | 0.527 µM (active) | > 50 µM (inactive) | > 50 µM (inactive) | > 50 µM (inactive) |  | > 50 µM (inactive) | > 50 µM (inactive) | > 50 µM (inactive) | > 50 µM (inactive) | > 50 µM (inactive) | > 50 µM (inactive) | > 50 µM (inactive) | > 46.1 µM (inactive) | 0.92 µM (active) | > 50 µM (inactive) | > 50 µM (inactive) |
| C=C[C@]1(O)CCC[C@]2(C)C(=O)CCC12C (some centres undefined) | > 100 µM (inactive) | > 100 µM (inactive) | > 100 µM (inactive) | > 100 µM (inactive) | > 100 µM (inactive) | > 100 µM (inactive) | > 100 µM (inactive) | > 100 µM | > 100 µM (inactive) | > 100 µM (inactive) | > 100 µM (inactive) | > 100 µM (inactive) | > 100 µM (inactive) | > 100 µM (inactive) | > 100 µM (inactive) | > 100 µM (inactive) | > 100 µM (inactive) |  | > 100 µM (inactive) |
